# “And” between values parts separate entries of the source, which are not always exact repeats. Identical values can stand only once.
# Columns and labels:
# Type in all cases: biochemical
# FIH [1] = biological target: T1, FIH (Homo sapiens, UniProt Q9NWT6); assay: Steady-state kinetics of FIH-catalyzed peptide/protein hydroxylation (MALDI-TOF-MS or LC-MS); conditions: for Km / kcat^app: 50 μM Fe(II), 1 mM L-ascorbate; for 2OG concentration above which substrate inhibition was observed: FIH steady-state assays with the named CAD peptide; for kcat^app: MALDI-TOF-MS or LC-MS
# T1 construct: Full-length recombinant FIH, two- and three-consensus ankyrin repeats (2CA and 3CA) were produced as described; His6 (cleaved yes); made in house; host or cells: Escherichia coli BL21(DE3)
# T1 sequence (Q9NWT6 whole entry): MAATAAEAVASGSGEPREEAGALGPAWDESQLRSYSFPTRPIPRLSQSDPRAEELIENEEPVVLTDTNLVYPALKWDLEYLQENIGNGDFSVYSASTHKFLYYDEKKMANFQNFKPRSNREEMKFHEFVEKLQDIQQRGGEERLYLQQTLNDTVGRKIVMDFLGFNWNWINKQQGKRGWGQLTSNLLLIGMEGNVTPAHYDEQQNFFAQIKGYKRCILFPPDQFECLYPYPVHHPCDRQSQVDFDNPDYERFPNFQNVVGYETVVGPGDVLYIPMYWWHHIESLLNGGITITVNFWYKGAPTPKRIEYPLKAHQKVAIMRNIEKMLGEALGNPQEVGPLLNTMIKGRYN
# Method: Enzymatic assays were conducted as described ([46], [47]). Unless otherwise stated, the assay mixture typically contained 5 μM FIH, 500 μM substrate, 500 μM 2OG, 1 mM L-ascorbate, and 50 μM Fe(NH4)2(SO4)2 or 4 μM PHD2, 100 μM substrate, 300 μM 2OG, 4 mM L-ascorbate, and 50 μM Fe(NH4)2(SO4)2. For HIF-1α CODD19-mer, the background levels of methionine oxidation resulting from assay conditions were subtracted based on non-enzymatic controls ([48]).
# (§1) The O2 dependence of FIH-catalyzed reactions was determined by conducting enzymatic assays in an “In vivo 500 Hypoxia Workstation” (Ruskinn) using buffers pre-equilibrated under different pO2 values for 24 h. The O2 dependence of PHD2-catalyzed reactions was determined by conducting enzymatic assays in sealed glass vials with variable N2/O2 contents ([42]). Reactions were stopped by spotting samples onto a matrix-assisted laser desorption/ionization-time of flight mass spectrometry (MALDI-TOF-MS) target plate and immediately mixing with α-cyano-4-hydroxycinnamic acid matrix. Hydroxylation levels were assessed by MALDI-TOF-MS as described ([46]).
# Samples obtained from FIH kinetic assays with 2CA and 3CA were diluted to a substrate concentration of 5 μM and then analyzed using a Waters® LCT Classic mass spectrometer by electrospray ionization in positive ion mode. An Agilent HP1100 LC system was used, and samples were run through a Phenomenex® Aeris Widepore 3.6-μm XB-C8 150 × 2.1-mm column at 0.5 ml/min in a gradient of phase A (95% H2O, 5% CH3CN, 0.01% formic acid) to phase B (95% CH3CN, 5% H2O, 0.01% formic acid). The LC/MS used the following method: 0–1.5 min, 100% A and then 1.5–12 min linear gradient from 0 to 100% B, 12–14 min 100% B, and 15.0–19.0 min 100% A for re-equilibration of the column. Data were collected and analyzed using MassLynx version 4.0.
# FIH [2] = biological target: T1, FIH; assay: O2 dependence of FIH-catalyzed hydroxylation (hypoxia workstation); conditions: for Km: FIH with the named substrate, 5 μM FIH, 500 μM peptide, 50 μM Fe(II), 1 mM 2OG, 1 mM L-ascorbate, 50 mM HEPES pH 7.5, 37 °C, hypoxia workstation at different pO2, triplicate assays, read-out: Km^app(O2)
# Method: as §1
# FIGURE 4. O2 dependence of FIH- and PHD2-catalyzed hydroxylation of HIF-1/2α. A, O2 dependence of PHD2-catalyzed hydroxylation of HIF-1/2α CODD/NODD 19-mer peptides. 4 μM PHD2, peptide (varied), 50 μM Fe(II), 2OG (varied), 4 mM L-ascorbate in HEPES 50 mM (pH 7.5) were incubated at 37 °C. The different O2 levels were maintained using mass flow controllers ([42]), and the hydroxylation levels were analyzed by MALDI-TOF-MS. B, O2 dependence of FIH-catalyzed hydroxylation of CAD HIF-1/2α 35-mer peptides. Conditions were as follows. 5 μM FIH, 500 μM peptide, 50 μM Fe(II), 1 mM 2OG, 1 mM L-ascorbate in HEPES 50 mM (pH 7.5) were incubated at 37 °C in a hypoxia work station under different pO2. […] Error bars, S.D. of triplicate assays.
# FIGURE 8. Time course and O2 dependence of the FIH-catalyzed hydroxylation of HIF-α CAD and ARD substrates. Conditions were as follows. 5 μM FIH, 500 μM peptide, 50 μM Fe(II), 1 mM 2OG, 1 mM L-ascorbate in HEPES 50 mM (pH 7.5) were incubated at 37 °C. For O2 dependence studies, reactions were carried out in a hypoxic work station under different pO2 (assays at >20% O2 conducted using mass flow controllers ([42])). The different hydroxylation levels were analyzed by MALDI-TOF-MS or by LC-MS (for 2CA and 3CA). […] Error bars, S.D. of triplicate assays. A, time course of consensus ARD substrate hydroxylation (tankyrase-1 (tnkrs-1 20-mer and 35-mer) and one-consensus ankyrin repeat 20-mer (1CA)). B, time course of ARD peptide hydroxylation (one-consensus ankyrin repeat 20-mer (1CA), two ankyrin repeats (2CA), and three ankyrin repeats (3CA)). C, O2 dependence of HIF-1/2α CAD, 1CA, and tnkrs-1_35-mer hydroxylation. D, O2 dependence of 1CA, 2CA, and 3CA hydroxylation.
# FIH [3] = biological target: T1, FIH; assay: Stopped-flow UV-visible spectroscopy, FIH·Fe(II)·2OG·substrate + O2; conditions: anaerobic 0.5 mM FIH, 1 mM substrate, 5 mM 2OG, 0.4 mM Fe(II), 50 mM HEPES pH 7.5, mixed 1:1 with O2-saturated buffer at 5 °C; double exponential fit
# Method: Stopped-flow UV-visible spectroscopy experiments were performed as described previously ([32], [42]). Anerobically prepared assay mixtures containing 0.5 mM apo-FIH, 1 mM substrate, 5 mM 2OG, 0.4 mM Fe(II) or 0.8 mM apo-PHD2, 1 mM substrate, 5 mM 2OG, 0.5 mM Fe(II) were rapidly mixed with O2-free/O2-saturated buffer. The reaction was observed over 1000 s using a photodiode array detector, and kinetic traces were analyzed using Origin version 8.51 software. Data were fitted with a double exponential function (y = A1 × exp(−kriset) + A2 × exp(−kfallt) + y0). The A1, A2, and y0 parameters were restricted with upper limits to match the observed amplitude/offset changes.
# Kinetic traces were fitted using a double exponential function; the fitting parameters of intermediate formation and decay are summarized in Table 3.
# FIGURE 10. Stopped-flow UV-visible absorbance changes upon FIH-catalyzed hydroxylation of HIF-1/2α CAD and ARD substrates. Reaction mixtures containing anaerobic 0.5 mM apo-FIH, 0.4 mM Fe(II), 5 mM 2OG, and 1 mM peptide in HEPES 50 mM (pH 7.5) were rapidly mixed with O2-saturated buffer at 5 °C in 1:1 ratio and analyzed using a photodiode array detector. The data were fitted with a double exponential function. A, decay at 500 nm (representing enzyme·substrate complex depletion) observed upon FIH-catalyzed hydroxylation of ARD substrates compared with HIF-1/2α CAD. B, formation and degradation of 310 nm species observed upon FIH-catalyzed HIF-1/2α CAD and ARD hydroxylation. C, decay at 500 nm observed upon FIH-catalyzed hydroxylation of 1CA, 2CA, and 3CA substrates.
# [4] = FIH with the named substrate, 0.1–5 μM FIH, 2OG varied, 50 mM HEPES pH 7.5, 37 °C, MALDI-TOF-MS (LC-MS for 2CA, 3CA), triplicate assays, read-out: Km^app(2OG)
# [5] = FIH, 0.1–5 μM FIH, substrate varied, 2OG fixed, 50 mM HEPES pH 7.5, 37 °C, MALDI-TOF-MS (LC-MS for 2CA, 3CA), triplicate assays, read-out: Km^app(peptide)
Sequence,"Km (FIH [1]; 5 μM FIH, peptide 500-1000 µM fixed, 2OG varied, Figure S3B, read-out: Km^app(2OG), fitting with a substrate inhibition model) [µM]",2OG concentration above which substrate inhibition was observed (FIH [1]) [µM],Km (FIH [1]; [4]) [µM],"kcat^app (FIH [1]; FIH, 50 mM HEPES pH 7.5, 37 °C) [s⁻¹]",Km (FIH [1]; [5]) [µM],Km (FIH [2]) [µM],"Half-saturation of O2 (FIH [2]; FIH-catalyzed hydroxylation, hypoxia workstation, 37 °C)","Stopped-flow, 500 nm (FIH) kfall phase (FIH [3]) [s⁻¹]","Stopped-flow, 500 nm (FIH) krise phase (FIH [3])",Km^app(O2) fold higher than in the presence of 1CA and 2CA (FIH [2]; FIH) [fold]
DESGLPQLTSYDCEVNAPIQGSRNLLQGEELLRAL [HIF-1α CAD35-mer],300 ± 100,> 100,110 ± 20,0.56 ± 0.04,180 ± 30,110 ± 30,9–11 % O2,4.5 ± 0.3,0.009 ± 0.005 s⁻¹,–
"GSHMGSDLGKKLLEAARAGQDDEVRILMANGADVAAKDKNGSTPLHLAARNGHLEVVKLLLEAGADVNAQDKFGKTAFDISIDNGNEDLAEILQ [3CA, recombinant three-consensus ankyrin repeat protein produced in Escherichia coli]",–,–,200 ± 60,0.6 ± 0.2,60 ± 15,120 ± 20,–,10.5 ± 0.1,1.7 s⁻¹ and 1.7 ± 0.3 s⁻¹,2
"SDKNGSTPLHLAARNGHLEVVKLLLEHGADVNAQDKWGKTAFDISIDNGNEDLAEILQ [2CA, recombinant two-consensus ankyrin repeat protein produced in Escherichia coli]",–,–,110 ± 30,1.7 ± 0.2,16 ± 3,56 ± 15,–,11.9 ± 0.2,0.6 ± 0.1 s⁻¹,–
ESYLLPELTRYDCEVNVPVLGSSTLLQGGDLLRAL [HIF-2α CAD35-mer],–,> 700,19 ± 6,0.049 ± 0.005,315 ± 40,110 ± 10,–,4.9 ± 0.2,0.017 ± 0.01 s⁻¹,–
"AAGYNNLEVAEYLLEHGADVNAQDKGGLIPLHNAA [tnkrs-1_35-mer, 35-mer fragment of tankyrase-1, ARD substrate of FIH]",–,–,61 ± 7,3.0 ± 0.2,14 ± 4,50 ± 10,–,14.8 ± 0.2,0.27 ± 0.03 s⁻¹,–
HLEVVKLLLEAGADVNAQDK [1CA20-mer],–,–,290 ± 50,1.6 ± 0.1,25 ± 7,40 ± 10,–,17.6 ± 0.1,0.4 ± 0.1 s⁻¹,–
